Biological target: PI3K delta (Homo sapiens, UniProt O00329)
Assay: Luciferase-coupled chemiluminescence kinase assay (ATP consumption, KinaseGlo)
Assay type: biochemical
How it was run: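 ATP consumption measured by KinaseGlo luciferase chemiluminescence after a 2 h reaction at ambient temperature, with ATP at or below the kinase KM. Ten inhibitor concentrations per curve; IC50 from four-parameter nonlinear regression.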

PI3K delta, sequence (O00329 whole entry): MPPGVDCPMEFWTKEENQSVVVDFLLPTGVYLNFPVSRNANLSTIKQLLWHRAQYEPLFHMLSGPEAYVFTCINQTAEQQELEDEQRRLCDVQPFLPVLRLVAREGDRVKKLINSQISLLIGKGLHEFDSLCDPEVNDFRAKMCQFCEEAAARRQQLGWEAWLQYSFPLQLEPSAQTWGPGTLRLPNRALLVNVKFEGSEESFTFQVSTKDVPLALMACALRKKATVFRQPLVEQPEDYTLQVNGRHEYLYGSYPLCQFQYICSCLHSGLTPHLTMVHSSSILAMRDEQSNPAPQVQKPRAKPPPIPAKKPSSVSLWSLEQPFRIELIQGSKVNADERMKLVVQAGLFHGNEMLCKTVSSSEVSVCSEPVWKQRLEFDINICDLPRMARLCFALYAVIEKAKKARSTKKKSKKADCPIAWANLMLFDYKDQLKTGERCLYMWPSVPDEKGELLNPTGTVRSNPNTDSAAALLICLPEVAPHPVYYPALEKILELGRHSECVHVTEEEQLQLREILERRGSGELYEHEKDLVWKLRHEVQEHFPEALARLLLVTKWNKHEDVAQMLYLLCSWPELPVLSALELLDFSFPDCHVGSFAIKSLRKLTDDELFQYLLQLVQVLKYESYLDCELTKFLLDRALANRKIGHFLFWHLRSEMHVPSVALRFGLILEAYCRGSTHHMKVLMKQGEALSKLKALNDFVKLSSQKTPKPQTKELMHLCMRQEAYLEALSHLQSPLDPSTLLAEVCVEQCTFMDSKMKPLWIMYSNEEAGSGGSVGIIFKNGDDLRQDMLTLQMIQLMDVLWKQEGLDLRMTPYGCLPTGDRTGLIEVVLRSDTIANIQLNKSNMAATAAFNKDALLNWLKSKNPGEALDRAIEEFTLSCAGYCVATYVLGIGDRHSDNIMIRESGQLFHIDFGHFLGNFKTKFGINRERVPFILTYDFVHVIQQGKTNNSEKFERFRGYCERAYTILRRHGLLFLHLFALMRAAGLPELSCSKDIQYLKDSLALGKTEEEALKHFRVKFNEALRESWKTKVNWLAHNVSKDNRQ
PI3K delta, sequence (P27986 whole entry partner): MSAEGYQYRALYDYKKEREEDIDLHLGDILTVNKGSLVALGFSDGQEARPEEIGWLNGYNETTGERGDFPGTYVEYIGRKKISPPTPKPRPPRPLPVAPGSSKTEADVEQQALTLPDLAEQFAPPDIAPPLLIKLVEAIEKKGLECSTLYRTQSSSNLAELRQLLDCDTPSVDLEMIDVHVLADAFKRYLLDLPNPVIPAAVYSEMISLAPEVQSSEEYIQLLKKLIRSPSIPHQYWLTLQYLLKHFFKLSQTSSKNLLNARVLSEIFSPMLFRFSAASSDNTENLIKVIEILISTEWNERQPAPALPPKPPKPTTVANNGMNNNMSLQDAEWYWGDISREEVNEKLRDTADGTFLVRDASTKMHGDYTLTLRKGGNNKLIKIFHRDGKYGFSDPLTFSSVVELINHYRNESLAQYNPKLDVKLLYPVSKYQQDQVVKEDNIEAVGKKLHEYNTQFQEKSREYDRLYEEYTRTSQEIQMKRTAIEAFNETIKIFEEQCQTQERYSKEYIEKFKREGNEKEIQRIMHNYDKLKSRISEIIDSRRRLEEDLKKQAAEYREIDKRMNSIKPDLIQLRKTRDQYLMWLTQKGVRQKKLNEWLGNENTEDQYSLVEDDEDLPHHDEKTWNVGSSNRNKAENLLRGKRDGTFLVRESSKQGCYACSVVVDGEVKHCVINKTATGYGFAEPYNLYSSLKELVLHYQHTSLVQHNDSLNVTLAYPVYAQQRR

Row | Compound | IC50 [nM]
1 | Cc1cccc(Cl)c1S(=O)(=O)N1CCN(c2ncnc3c2nc(-c2cnn(C)c2)n3C)CC1 [Compound 386, 6-{4-[(2-chloro-6-methylphenyl)sulfonyl]piperazin-1-yl)-9-methyl-8-(1-methyl-1H-pyrazol-4-yl)-9H-purine] | 250 to 500
2 | Cn1cc(-c2nc3c(N4CCN(c5cccc(OCC(=O)NC6CCCCC6)c5)CC4)ncnc3n2C)cn1 [Compound 358, N-cyclohexyl-2-[(3-{4-[9-methyl-8-(1-methyl-1H-pyrazol-4-yl)-9H-purin-6-yl]piperazin-1-yl}phenyl)oxy]acetamide] | 500 to 1500
3 | CCn1cc(-c2nc3c(N4CCN(c5ccccc5)CC4)ncnc3n2C)cn1 [Compound 368, 8-(1-ethyl-1H-pyrazol-4-yl)-9-methyl-6-(4-phenylpiperazin-1-yl)-9H-purine] | 500 to 1500
4 | CCn1c(-c2ccnnc2)nc2c(N3CCC(n4c(=O)[nH]c5ccccc54)CC3)ncnc21 [Compound 312, 1-[1-(9-ethyl-8-pyridazin-4-yl-9H-purin-6-yl)piperidin-4-yl]-1,3-dihydro-2H-benzimidazol-2-one] | < 50
5 | CNc1ncc(-c2nc3c(N4CCC(n5c(=O)[nH]c6ccccc65)CC4)ncnc3n2C)cn1 [Compound 309, 1-(1-{9-methyl-8-[2-(methylamino)pyrimidin-5-yl]-9H-purin-6-yl}piperidin-4-yl)-1,3-dihydro-2H-benzimidazol-2-one] | < 50
6 | COc1ccc(-c2nc3c(N4CCC(n5c(=O)[nH]c6ccccc65)CC4)ncnc3n2C)cn1 [Compound 299, 1-(1-{9-methyl-8-[6-(methyloxy)pyridin-3-yl]-9H-purin-6-yl}piperidin-4-yl)-1,3-dihydro-2H-benzimidazol-2-one] | < 50
7 | CC1CC(n2c(=O)[nH]c3ccccc32)CCN1c1ncnc2c1nc(C(=O)NCC1CC1)n2C (stereo not shown) [Compound 277, N-(cyclopropylmethyl)-9-methyl-6-[2-methyl-4-(2-oxo-2,3-dihydro-1H-benzimidazol-1-yl)piperidin-1-yl]-9H-purine-8-carboxamide] | 50 to 250
8 | Cn1c(-n2cccc2)nc2c(N3CCC(n4c(=O)[nH]c5ccccc54)CC3)ncnc21 [Compound 127, 1-{1-[9-methyl-8-(1H-pyrrol-1-yl)-9H-purin-6-yl]piperidin-4-yl}-1,3-dihydro-2H-benzimidazol-2-one] | 500 to 1500
9 | Cn1c(C(=O)NCCCO)nc2c(N3CCC4(CC3)C(=O)Nc3ccccc34)ncnc21 [Compound 19, N-(3-hydroxypropyl)-9-methyl-6-(2-oxo-1,2-dihydro-1′H-spiro[indole-3,4′-piperidin]-1′-yl)-9H-purine-8-carboxamide] | 50 to 250
10 | CCn1c(-c2cccnc2)nc2c(N3CCC4(CC3)C(=O)Nc3ccccc34)ncnc21 [Compound 291, 1′-(9-ethyl-8-pyridin-3-yl-9H-purin-6-yl)spiro[indole-3,4′-piperidin]-2(1H)-one] | < 50
11 | Cc1c(-c2nc3c(N4CCC(n5c(=O)[nH]c6ncccc65)CC4)ncnc3n2C)cnn1C [Compound 331, 1-{1-[8-(1,5-dimethyl-1H-pyrazol-4-yl)-9-methyl-9H-purin-6-yl]piperidin-4-yl}-1,3-dihydro-2H-imidazo[4,5-b]pyridin-2-one] | < 50
12 | Cn1c(C(=O)NCC(C)(C)O)nc2c(N3CCC4(CC3)C(=O)Nc3ccccc34)ncnc21 [Compound 83, N-(2-hydroxy-2-methylpropyl)-9-methyl-6-(2-oxo-1,2-dihydro-1′H-spiro[indole-3,4′-piperidin]-1′-yl)-9H-purine-8-carboxamide] | 50 to 250
13 | Cn1cc(-c2nc3c(N4CCN(c5cccc(OCC(=O)N6CCCCC6)c5)CC4)ncnc3n2C)cn1 [Compound 357, 9-methyl-8-(1-methyl-1H-pyrazol-4-yl)-6-(4-{3-[(2-oxo-2-piperidin-1-ylethyl)oxy]phenyl}piperazin-1-yl)-9H-purine] | 500 to 1500
14 | CN(CCC#N)C(=O)c1nc2c(N3CCC4(CC3)C(=O)Nc3ccccc34)ncnc2n1C [Compound 39, N-(2-cyanoethyl)-N,9-dimethyl-6-(2-oxo-1,2-dihydro-1′H-spiro[indole-3,4′-piperidin]-1′-yl)-9H-purine-8-carboxamide] | 500 to 1500
15 | Cn1c(-c2nnc(C3CC3)o2)nc2c(N3CCC4(CC3)C(=O)Nc3ccccc34)ncnc21 [Compound 184, 1′-[8-(5-cyclopropyl-1,3,4-oxadiazol-2-yl)-9-methyl-9H-purin-6-yl]spiro[indole-3,4′-piperidin]-2(1H)-one] | < 50
16 | Cn1cc(-c2nc3c(N4CCN(S(=O)(=O)c5ccc(F)cc5F)CC4)ncnc3n2C)cn1 [Compound 383, 6-{4-[(2,4-difluorophenyl)sulfonyl]piperazin-1-yl)-9-methyl-8-(1-methyl-1H-pyrazol-4-yl)-9H-purine] | 500 to 1500
17 | Cn1c(C(=O)NCC(C)(C)C)nc2c(N3CCC4(CC3)C(=O)Nc3ccccc34)ncnc21 [Compound 96, N-(2,2-dimethylpropyl)-9-methyl-6-(2-oxo-1,2-dihydro-1′H-spiro[indole-3,4′-piperidin]-1′-yl)-9H-purine-8-carboxamide] | 50 to 250

Row | Compound | IC50 [nM]
18 | Cn1cc(-c2nc3c(N4CCN(c5cccc(OCC(=O)NC6CCCC6)c5)CC4)ncnc3n2C)cn1 [Compound 356, N-cyclopentyl-2-[(3-{4-[9-methyl-8-(1-methyl-1H-pyrazol-4-yl)-9H-purin-6-yl]piperazin-1-yl}phenyl)oxy]acetamide] | 500 to 1500
19 | CC(C)CNC(=O)c1nc2c(N3CCC(n4c(=O)[nH]c5ccccc54)CC3)ncnc2n1C [Compound 67, 9-methyl-N-(2-methylpropyl)-6-[4-(2-oxo-2,3-dihydro-1H-benzimidazol-1-yl)piperidin-1-yl]-9H-purine-8-carboxamide] | < 50
20 | Cn1cc(-c2nc3c(N4CCN(c5ccc(OCc6ccc7ccccc7n6)cc5)CC4)ncnc3n2C)cn1 [Compound 361, 2-{[(4-(4-[9-methyl-8-(1-methyl-1H-pyrazol-4-yl)-9H-purin-6-yl]piperazin-1-yl}phenyl)oxy]methyl)-quinoline] | 500 to 1500
21 | Cn1c(C(F)(F)F)nc2c(N3CCC(n4c(=O)[nH]c5ccccc54)CC3)ncnc21 [Compound 134, 1-{1-[9-Methyl-8-(trifluoromethyl)-9H-purin-6-yl]piperidin-4-yl}-1,3-dihydro-2H-benzimidazol-2-one] | 250 to 500
22 | Cn1c(C(=O)N2CC[C@H](F)C2)nc2c(N3CCC(n4c(=O)[nH]c5ccccc54)CC3)ncnc21 [Compound 396, 1-[1-(8-{[(3S)-3-fluoropyrrolidin-1-yl]carbonyl)-9-methyl-9H-purin-6-yl)piperidin-4-yl]-1,3-dihydro-2H-benzimidazol-2-one] | 50 to 250
23 | Cn1c(C(=O)NCC2CC2)nc2c(N3CCC4(CC3)OCc3ccccc34)ncnc21 [Compound 132, N-(cyclopropylmethyl)-9-methyl-6-(1′H,3H-spiro[2-benzofuran-1,4′-piperidin]-1′-yl)-9H-purine-8-carboxamide] | 500 to 1500
24 | Cn1c(C(=O)NCC2CC2)nc2c(N3CCC(N4C(=O)Cc5ccccc54)CC3)ncnc21 [Compound 117, N-(cyclopropylmethyl)-9-methyl-6-[4-(2-oxo-2,3-dihydro-1H-indol-1-yl)piperidin-1-yl]-9H-purine-8-carboxamide] | 50 to 250
25 | Cn1cc(-c2nc3c(N4CCN(S(=O)(=O)c5ccc(F)cc5)CC4)ncnc3n2C)cn1 [Compound 372, 6-{4-[(4-fluorophenyl)sulfonyl]piperazin-1-yl}-9-methyl-8-(1-methyl-1H-pyrazol-4-yl)-9H-purine] | 500 to 1500
26 | CCNC(=O)c1nc2c(N3CCC4(CC3)C(=O)Nc3ccccc34)ncnc2n1CC [Compound 219, N,9-diethyl-6-(2-oxo-1,2-dihydro-1′H-spiro[indole-3,4′-piperidin]-1′-yl)-9H-purine-8-carboxamide] | < 50
27 | Cn1c(-c2cccnc2)nc2c(N3CCC4(CC3)C(=O)Nc3ccccc34)ncnc21 [Compound 290, 1′-(9-methyl-8-pyridin-3-yl-9H-purin-6-yl)spiro[indole-3,4′-piperidin]-2(1H)-one] | < 50
28 | CCn1c(C(=O)N[C@H]2CC[C@H](O)CC2)nc2c(N3CCC(n4c(=O)[nH]c5ncccc54)CC3)ncnc21 [Compound 328, 9-ethyl-N-(trans-4-hydroxycyclohexyl)-6-[4-(2-oxo-2,3-dihydro-1H-imidazo[4,5-b]pyridin-1-yl)piperidin-1-yl]-9H-purine-8-carboxamide] | < 50
29 | CCCCc1nc2c(N3CCC(n4c(=O)[nH]c5ccccc54)CC3)ncnc2n1C [Compound 93, 1-[1-(8-butyl-9-methyl-9H-purin-6-yl)piperidin-4-yl]-1,3-dihydro-2H-benzimidazol-2-one] | 500 to 1500
30 | Cn1c(C(=O)NCc2ccc3c(c2)OCO3)nc2c(N3CCC(n4c(=O)[nH]c5ccccc54)CC3)ncnc21 [Compound 50, N-(1,3-benzodioxol-5-ylmethyl)-9-methyl-6-[4-(2-oxo-2,3-dihydro-1H-benzimidazol-1-yl)piperidin-1-yl]-9H-purine-8-carboxamide] | 250 to 500
31 | Cn1c(-c2cccnn2)nc2c(N3CCC(n4c(=O)[nH]c5ccccc54)CC3)ncnc21 [Compound 297, 1-[1-(9-methyl-8-pyridazin-3-yl-9H-purin-6-yl)piperidin-4-yl]-1,3-dihydro-2H-benzimidazol-2-one] | 50 to 250
32 | CCOC(=O)Cn1cc(-c2nc3c(N4CCC(n5c(=O)[nH]c6ccccc65)CC4)ncnc3n2C)cn1 [Compound 181, ethyl (4-{9-methyl-6-[4-(2-oxo-2,3-dihydro-1H-benzimidazol-1-yl)piperidin-1-yl]-9H-purin-8-yl}-1H-pyrazol-1-yl)acetate] | 250 to 500
33 | CCCNC(=O)c1nc2c(N3CCC4(CC3)C(=O)Nc3ccccc34)ncnc2n1CC [Compound 220, 9-ethyl-6-(2-oxo-1,2-dihydro-1′H-spiro[indole-3,4′-piperidin]-1′-yl)-N-propyl-9H-purine-8-carboxamide] | < 50
34 | Cn1c(C(=O)NCC(F)(F)F)nc2c(N3CCC4(CC3)C(=O)Nc3ccccc34)ncnc21 [Compound 30, 9-methyl-6-(2-oxo-1,2-dihydro-1′H-spiro[indole-3,4′-piperidin]-1′-yl)-N-(2,2,2-trifluoroethyl)-9H-purine-8-carboxamide] | < 50

— patent US20140058103A1, “Inhibitors of PI3K-Delta and Methods of Their Use and Manufacture” (Exelixis, Inc., priority 2010, published 2014)
